Results from patent publication US11981658B2, “Substituted aminopyridine compounds as EGFR inhibitors” (YUHAN CORPORATION, priority 2021, dated 2024).
Where two headings read alike, the source gives them in different places.

Columns and labels:
EGFR L858R/T790M/C797S = EGFR L858R/T790M/C797S (Homo sapiens, UniProt P00533, C797S/L858R/T790M); assay: Biochemical EGFR kinase inhibition assay (Lance Ultra TR-FRET), triple mutant L858R/T790M/C797S
Outline: (§1)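 In this biochemical assay, phosphorylation after a one-hour room-temperature reaction was detected with europium-labelled anti-phosphopeptide antibody at 2 nM final concentration.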

EGFR wildtype (WT) = EGFR wildtype (WT) (Homo sapiens, UniProt P00533); assay: Biochemical EGFR kinase inhibition assay (Lance Ultra TR-FRET), wildtype
Outline: as §1

EGFR L858R/C797S = EGFR L858R/C797S (Homo sapiens, UniProt P00533, C797S/L858R); assay: Biochemical EGFR kinase inhibition assay (Lance Ultra TR-FRET), double mutant L858R/C797S
Sequence of EGFR L858R/C797S (P00533 25-1210 C797S/L858R): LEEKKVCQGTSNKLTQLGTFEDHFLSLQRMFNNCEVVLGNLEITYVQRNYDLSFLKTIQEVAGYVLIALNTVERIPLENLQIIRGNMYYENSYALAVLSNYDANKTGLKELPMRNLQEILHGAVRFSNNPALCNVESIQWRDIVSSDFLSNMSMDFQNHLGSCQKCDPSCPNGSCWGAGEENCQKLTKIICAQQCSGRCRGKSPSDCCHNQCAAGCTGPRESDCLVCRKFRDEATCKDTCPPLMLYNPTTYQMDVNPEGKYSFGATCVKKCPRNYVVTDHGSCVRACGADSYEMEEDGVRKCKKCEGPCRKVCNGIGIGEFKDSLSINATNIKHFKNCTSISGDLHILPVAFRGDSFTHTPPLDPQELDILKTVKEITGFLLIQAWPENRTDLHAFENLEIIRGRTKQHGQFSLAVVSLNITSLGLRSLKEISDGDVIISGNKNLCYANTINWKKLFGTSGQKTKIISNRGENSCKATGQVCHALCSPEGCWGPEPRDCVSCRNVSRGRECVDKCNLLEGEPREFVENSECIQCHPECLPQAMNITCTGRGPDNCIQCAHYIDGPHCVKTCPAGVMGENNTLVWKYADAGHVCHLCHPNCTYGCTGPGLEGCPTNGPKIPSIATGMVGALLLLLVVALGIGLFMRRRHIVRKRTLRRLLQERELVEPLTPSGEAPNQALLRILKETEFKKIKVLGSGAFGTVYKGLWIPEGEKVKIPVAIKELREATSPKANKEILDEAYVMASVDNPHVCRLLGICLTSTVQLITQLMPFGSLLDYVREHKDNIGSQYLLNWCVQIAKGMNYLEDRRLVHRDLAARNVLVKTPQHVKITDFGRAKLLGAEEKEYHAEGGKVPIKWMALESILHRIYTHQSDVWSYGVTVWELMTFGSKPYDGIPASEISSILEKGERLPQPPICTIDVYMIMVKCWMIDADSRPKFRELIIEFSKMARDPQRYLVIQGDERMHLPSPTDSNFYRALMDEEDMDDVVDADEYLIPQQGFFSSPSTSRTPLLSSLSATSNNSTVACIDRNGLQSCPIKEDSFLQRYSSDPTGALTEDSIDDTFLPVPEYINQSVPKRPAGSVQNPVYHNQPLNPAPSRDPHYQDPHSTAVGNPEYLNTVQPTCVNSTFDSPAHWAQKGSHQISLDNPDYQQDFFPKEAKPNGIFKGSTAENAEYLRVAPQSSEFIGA
Outline: as §1

EGFR Del19/T790M/C797S = EGFR Del19/T790M/C797S (Homo sapiens, UniProt P00533, C797S/DEL746-750/T790M); assay: Biochemical EGFR kinase inhibition assay (Lance Ultra TR-FRET), triple mutant del19/T790M/C797S
Sequence of EGFR Del19/T790M/C797S (P00533 with tags, fused parts or gaps DEL746-750/T790M/C797S): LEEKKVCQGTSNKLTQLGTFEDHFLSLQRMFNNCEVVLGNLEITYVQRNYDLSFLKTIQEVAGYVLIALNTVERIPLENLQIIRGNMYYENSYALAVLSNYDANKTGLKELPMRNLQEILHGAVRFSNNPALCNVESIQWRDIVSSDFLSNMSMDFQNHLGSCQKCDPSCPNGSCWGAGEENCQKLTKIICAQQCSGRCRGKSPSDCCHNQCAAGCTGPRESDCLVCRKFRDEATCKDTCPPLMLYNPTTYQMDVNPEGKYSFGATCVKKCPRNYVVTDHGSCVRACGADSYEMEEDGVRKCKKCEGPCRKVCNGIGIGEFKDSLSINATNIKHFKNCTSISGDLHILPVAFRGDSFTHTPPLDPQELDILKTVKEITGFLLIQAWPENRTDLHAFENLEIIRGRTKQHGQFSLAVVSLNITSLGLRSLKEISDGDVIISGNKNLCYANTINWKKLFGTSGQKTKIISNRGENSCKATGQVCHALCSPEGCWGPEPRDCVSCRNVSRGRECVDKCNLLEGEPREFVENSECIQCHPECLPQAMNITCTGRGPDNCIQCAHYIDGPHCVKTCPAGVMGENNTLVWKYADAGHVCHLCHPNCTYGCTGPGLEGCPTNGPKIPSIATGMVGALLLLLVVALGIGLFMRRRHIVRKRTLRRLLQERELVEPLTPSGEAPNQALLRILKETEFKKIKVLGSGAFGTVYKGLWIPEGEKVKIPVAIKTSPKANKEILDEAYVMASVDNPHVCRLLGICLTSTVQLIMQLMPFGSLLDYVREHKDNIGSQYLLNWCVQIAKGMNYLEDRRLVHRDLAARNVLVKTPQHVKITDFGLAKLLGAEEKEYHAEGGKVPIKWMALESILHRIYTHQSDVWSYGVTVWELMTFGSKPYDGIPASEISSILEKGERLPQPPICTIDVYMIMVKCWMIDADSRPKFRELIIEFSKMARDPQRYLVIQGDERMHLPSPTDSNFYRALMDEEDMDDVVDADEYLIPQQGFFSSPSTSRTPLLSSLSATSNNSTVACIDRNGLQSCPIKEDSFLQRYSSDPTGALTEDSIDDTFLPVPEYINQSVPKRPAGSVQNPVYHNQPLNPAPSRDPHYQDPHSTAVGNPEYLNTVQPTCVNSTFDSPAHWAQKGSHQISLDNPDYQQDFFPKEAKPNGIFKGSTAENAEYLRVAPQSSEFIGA
Outline: as §1

EGFR Del19/C797S = EGFR Del19/C797S (Homo sapiens, UniProt P00533, C797S/DEL746-750); assay: Biochemical EGFR kinase inhibition assay (Lance Ultra TR-FRET), double mutant del19/C797S
Sequence of EGFR Del19/C797S (P00533 with tags, fused parts or gaps DEL746-750/C797S): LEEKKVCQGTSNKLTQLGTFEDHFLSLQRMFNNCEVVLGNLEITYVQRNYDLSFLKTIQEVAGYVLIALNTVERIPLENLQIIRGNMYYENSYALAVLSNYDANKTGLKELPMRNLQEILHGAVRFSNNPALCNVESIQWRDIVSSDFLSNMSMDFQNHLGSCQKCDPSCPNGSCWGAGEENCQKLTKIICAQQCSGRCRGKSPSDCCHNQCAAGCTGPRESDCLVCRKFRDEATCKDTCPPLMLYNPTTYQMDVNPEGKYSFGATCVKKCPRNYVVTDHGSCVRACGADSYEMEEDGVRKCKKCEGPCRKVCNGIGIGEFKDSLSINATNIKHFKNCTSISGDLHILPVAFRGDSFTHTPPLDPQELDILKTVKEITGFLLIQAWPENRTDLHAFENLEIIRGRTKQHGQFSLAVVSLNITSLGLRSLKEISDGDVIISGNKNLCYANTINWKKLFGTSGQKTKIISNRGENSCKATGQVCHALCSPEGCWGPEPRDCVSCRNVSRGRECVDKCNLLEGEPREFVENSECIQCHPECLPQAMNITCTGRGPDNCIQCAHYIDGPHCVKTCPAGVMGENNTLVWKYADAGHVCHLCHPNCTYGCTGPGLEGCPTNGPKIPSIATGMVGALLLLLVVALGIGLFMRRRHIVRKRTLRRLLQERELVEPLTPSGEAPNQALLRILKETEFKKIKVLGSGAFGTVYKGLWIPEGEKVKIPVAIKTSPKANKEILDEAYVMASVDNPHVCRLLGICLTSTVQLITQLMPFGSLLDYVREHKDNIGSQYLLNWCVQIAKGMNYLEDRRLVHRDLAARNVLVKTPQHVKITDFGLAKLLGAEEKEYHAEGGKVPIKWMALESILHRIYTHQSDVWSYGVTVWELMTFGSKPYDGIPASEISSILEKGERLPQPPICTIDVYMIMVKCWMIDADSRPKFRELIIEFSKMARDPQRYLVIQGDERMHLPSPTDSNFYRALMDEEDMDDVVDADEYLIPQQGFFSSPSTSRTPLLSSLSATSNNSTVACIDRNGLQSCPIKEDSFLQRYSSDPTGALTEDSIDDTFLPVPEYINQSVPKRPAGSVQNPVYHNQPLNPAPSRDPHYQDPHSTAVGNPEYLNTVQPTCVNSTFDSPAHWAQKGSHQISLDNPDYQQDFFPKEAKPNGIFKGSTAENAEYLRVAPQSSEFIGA
Outline: as §1

[1] = ATP at Km, read-out: IC50 L858R/T790M/C797S (nM), Km ATP
[2] = IC50 L858R/T790M/C797S (nM), 100 μM ATP
[3] = ATP at Km, read-out: IC50 WT (nM), Km ATP
[4] = ATP at Km, read-out: IC50 L858R/C797S (nM), Km ATP
[5] = IC50 L858R/C797S (nM), 100 μM ATP
[6] = ATP at Km, read-out: IC50 Del19/T790M/C797S (nM), Km ATP
[7] = IC50 Del19/T790M/C797S (nM), 100 μM ATP
[8] = ATP at Km, read-out: IC50 Del19/C797S (nM), Km ATP
[9] = IC50 Del19/C797S (nM), 100 μM ATP
[10] = Km ATP, read-out: IC50 L858R/T790M/C797S (nM) Km ATP
[11] = Km ATP, read-out: IC50 WT (nM) Km ATP
[12] = Km ATP, read-out: IC50 L858R/C797S (nM) Km ATP
[13] = Km ATP, read-out: IC50 Del19/T790M/C797S (nM) Km ATP
[14] = Km ATP, read-out: IC50 Del19/C797S (nM) Km ATP

Sequence of EGFR L858R/T790M/C797S (P00533 25-1210 T790M/C797S/L858R): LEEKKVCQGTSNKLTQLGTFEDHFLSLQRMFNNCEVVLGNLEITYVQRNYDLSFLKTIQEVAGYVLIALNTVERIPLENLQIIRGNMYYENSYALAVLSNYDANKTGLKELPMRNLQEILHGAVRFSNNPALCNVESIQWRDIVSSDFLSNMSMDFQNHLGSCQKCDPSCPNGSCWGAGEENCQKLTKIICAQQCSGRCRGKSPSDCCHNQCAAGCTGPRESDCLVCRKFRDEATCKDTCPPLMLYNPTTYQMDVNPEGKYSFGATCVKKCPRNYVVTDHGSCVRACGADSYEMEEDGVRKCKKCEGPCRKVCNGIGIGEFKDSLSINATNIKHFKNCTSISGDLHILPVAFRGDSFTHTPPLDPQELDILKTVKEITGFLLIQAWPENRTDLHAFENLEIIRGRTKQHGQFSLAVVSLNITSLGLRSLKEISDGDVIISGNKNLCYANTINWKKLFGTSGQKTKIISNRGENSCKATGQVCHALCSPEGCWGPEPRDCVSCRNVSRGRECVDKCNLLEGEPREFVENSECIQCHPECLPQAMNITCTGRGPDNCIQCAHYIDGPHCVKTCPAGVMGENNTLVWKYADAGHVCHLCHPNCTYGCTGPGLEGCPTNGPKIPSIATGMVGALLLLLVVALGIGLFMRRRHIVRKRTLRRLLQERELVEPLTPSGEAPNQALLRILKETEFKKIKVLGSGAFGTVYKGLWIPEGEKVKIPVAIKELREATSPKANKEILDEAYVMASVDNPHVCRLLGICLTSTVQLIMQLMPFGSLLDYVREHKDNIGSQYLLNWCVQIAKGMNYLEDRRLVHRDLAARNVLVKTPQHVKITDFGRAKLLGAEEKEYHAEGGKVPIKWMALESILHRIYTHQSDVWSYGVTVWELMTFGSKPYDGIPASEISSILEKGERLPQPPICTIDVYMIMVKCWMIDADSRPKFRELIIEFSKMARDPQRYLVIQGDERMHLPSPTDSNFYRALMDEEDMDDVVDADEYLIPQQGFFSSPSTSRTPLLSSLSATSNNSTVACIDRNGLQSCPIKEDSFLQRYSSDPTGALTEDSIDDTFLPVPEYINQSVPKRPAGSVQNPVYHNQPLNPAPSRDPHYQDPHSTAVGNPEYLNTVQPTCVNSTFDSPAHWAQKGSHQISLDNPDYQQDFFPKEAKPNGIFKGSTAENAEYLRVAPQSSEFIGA

| SMILES | IC50 (EGFR L858R/T790M/C797S; [1]) [nM] | IC50 (EGFR L858R/T790M/C797S; [2]) [nM] | IC50 (EGFR wildtype (WT); [3]) [nM] | IC50 (EGFR wildtype (WT); IC50 WT (nM), 100 μM ATP) [nM] | IC50 (EGFR L858R/C797S; [4]) [nM] | IC50 (EGFR L858R/C797S; [5]) [nM] | IC50 (EGFR Del19/T790M/C797S; [6]) [nM] | IC50 (EGFR Del19/T790M/C797S; [7]) [nM] | IC50 (EGFR Del19/C797S; [8]) [nM] | IC50 (EGFR Del19/C797S; [9]) [nM] | IC50 (EGFR L858R/T790M/C797S; [10]) [nM] | IC50 (EGFR wildtype (WT); [11]) [nM] | IC50 (EGFR L858R/C797S; [12]) [nM] | IC50 (EGFR Del19/T790M/C797S; [13]) [nM] | IC50 (EGFR Del19/C797S; [14]) [nM] |
| --- | --- | --- | --- | --- | --- | --- | --- | --- | --- | --- | --- | --- | --- | --- | --- |
| CN(C)Cc1ccc(C#Cc2cnc(Nc3ccnc(-c4cnn(S(=O)(=O)C5CC5)c4)n3)cc2N2CCC(C)(CO)CC2)cc1 [Example 254, (1-(2-((2-(1-(Cyclopropylsulfonyl)-1H-pyrazol-4-yl)pyrimidin-4-yl)amino)-5-((4-((dimethylamino)methyl)phenyl)ethynyl)pyridin-4-yl)-4-methylpiperidin-4-yl)methanol] | 0.1 | 0.2 | 0.9 | 248 | 2.1 | 1.3 | 0.1 | 0.2 | 0.3 | 0.4 | – | – | – | – | – |
| CN1CCC2(CC1)CCN(c1cc(Nc3ccnc(-c4cnn(S(=O)(=O)C5CC5)c4)n3)ncc1C#Cc1cnn(C)c1)CC2 [Example 318, 2-(1-(Cyclopropylsulfonyl)-1H-pyrazol-4-yl)-N-(5-((1-methyl-1H-pyrazol-4-yl)ethynyl)-4-(9-methyl-3,9-diazaspiro[5.5]undecan-3-yl)pyridin-2-yl)pyrimidin-4-amine] | – | 0.4 | – | 5990 | – | 18.4 | – | 0.3 | – | 4.2 | – | – | – | – | – |
| CN(C)CCCn1cc(C#Cc2cnc(Nc3ccnc(-c4cnn(S(=O)(=O)C5CC5)c4)n3)cc2N2CCC(C)(CO)CC2)cn1 [Example 120, (1-(2-((2-(1-(Cyclopropylsulfonyl)-1H-pyrazol-4-yl)pyrimidin-4-yl)amino)-5-((1-(3-(dimethylamino)propyl)-1H-pyrazol-4-yl)ethynyl)pyridin-4-yl)-4-methylpiperidin-4-yl)methanol] | – | 0.5 | – | 212 | – | 1.3 | – | 0.7 | – | 0.8 | 0.3 | 1.6 | 0.3 | 0.7 | 0.5 |
| CN(C)CC1CCN(c2cc(Nc3ccnc(-c4cnn(S(=O)(=O)C5CC5)c4)n3)ncc2C#Cc2cnn(C)c2)CC1 [Example 295, 2-(1-(Cyclopropylsulfonyl)-1H-pyrazol-4-yl)-N-(4-(4-((dimethylamino)methyl)piperidin-1-yl)-5-((1-methyl-1H-pyrazol-4-yl)ethynyl)pyridin-2-yl)pyrimidin-4-amine] | – | 2.4 | – | > 10000 | – | 68.2 | – | 0.8 | – | 9.9 | – | – | – | – | – |
| CN(C)C[C@H]1CC[C@H](COc2cc(Nc3ccnc(-c4cnn(S(=O)(=O)C5CC5)c4)n3)ncc2C#Cc2cnn(C3CC3)c2)CC1 [Example 60, N-(5-((1-Cyclopropyl-1H-pyrazol-4-yl)ethynyl)-4-(((1r,4r)-4-((dimethylamino)methyl)cyclohexyl)methoxy)pyridin-2-yl)-2-(1-(cyclopropylsulfonyl)-1H-pyrazol-4-yl)pyrimidin-4-amine] | – | – | – | – | – | – | – | – | – | – | 0.1 | 8.8 | 2.6 | 0.5 | 0.4 |
| CN(C)CC1(C)CCN(c2cc(Nc3ccnc(-c4cnn(S(=O)(=O)C5CC5)c4)n3)ncc2C#Cc2cnn(C)c2)CC1 [Example 296, 2-(1-(Cyclopropylsulfonyl)-1H-pyrazol-4-yl)-N-(4-(4-((dimethylamino)methyl)-4-methylpiperidin-1-yl)-5-((1-methyl-1H-pyrazol-4-yl)ethynyl)pyridin-2-yl)pyrimidin-4-amine] | 0.1 | 0.3 | 4.4 | 3250 | 1.4 | 9 | 0.1 | 0.1 | 0.6 | 0.6 | – | – | – | – | – |
| O=S(=O)(C1CC1)n1cc(-c2nccc(Nc3cc(N4CCC(CO)CC4)c(C#Cc4cnn(CCF)c4)cn3)n2)cn1 [Example 30, (1-(2-((2-(1-(Cyclopropylsulfonyl)-1H-pyrazol-4-yl)pyrimidin-4-yl)amino)-5-((1-(2-fluoroethyl)-1H-pyrazol-4-yl)ethynyl)pyridin-4-yl)piperidin-4-yl)methanol] | – | 1.4 | – | > 10000 | – | 22.3 | – | 1.3 | – | 2.8 | – | 8.2 | 4.4 | 0.9 | 3 |
| COC1CCN(c2cc(Nc3ccnc(-c4cnn(S(=O)(=O)C5CC5)c4)n3)ncc2C#Cc2cnn(C3CCN(C(C)=O)CC3)c2)CC1 [Example 113, 1-(4-(4-((6-((2-(1-(Cyclopropylsulfonyl)-1H-pyrazol-4-yl)pyrimidin-4-yl)amino)-4-(4-methoxypiperidin-1-yl)pyridin-3-yl)ethynyl)-1H-pyrazol-1-yl)piperidin-1-yl)ethan-1-one] | – | 2.9 | – | 7550 | – | 11.3 | – | 1.3 | – | 4 | 0.8 | 12 | 2.6 | 1.3 | 3.2 |
| CC1(C)CN(c2cc(Nc3ccnc(-c4cnn(S(=O)(=O)C5CC5)c4)n3)ncc2C#Cc2ccsc2)CCC1O (stereo not shown) [Example 229, 1-(2-((2-(1-(Cyclopropylsulfonyl)-1H-pyrazol-4-yl)pyrimidin-4-yl)amino)-5-(thiophen-3-ylethynyl)pyridin-4-yl)-3,3-dimethylpiperidin-4-ol] | – | 26.9 | – | > 10000 | – | 368 | – | 8.9 | – | 175 | – | – | – | – | – |
| Cn1cc(C#Cc2cnc(Nc3ccnc(-c4cnn(S(=O)(=O)C5CC5)c4)n3)cc2NC2CCCC(F)C2)cn1 (stereo not shown) [Example 74, N^2-(2-(1-(Cyclopropylsulfonyl)-1H-pyrazol-4-yl)pyrimidin-4-yl)-N^4-(3-fluorocyclohexyl)-5-((1-methyl-1H-pyrazol-4-yl)ethynyl)pyridine-2,4-diamine] | – | 13.6 | – | > 10000 | – | 181 | – | 4.7 | – | 123 | – | – | – | – | – |
| CC1(CO)CCN(c2cc(Nc3ccnc(Nc4ccccc4S(C)(=O)=O)n3)ncc2C#Cc2cnn(C(F)F)c2)CC1 [Example 271, (1-(5-((1-(Difluoromethyl)-1H-pyrazol-4-yl)ethynyl)-2-((2-((2-(methylsulfonyl)phenyl)amino)pyrimidin-4-yl)amino)pyridin-4-yl)-4-methylpiperidin-4-yl)methanol] | 6.7 | 9.2 | 411 | > 10000 | 439 | > 10000 | 1.8 | 3 | 68.5 | 111 | – | – | – | – | – |
| CN(C)Cc1cccc(C#Cc2cnc(Nc3ccnc(-c4cnn(S(=O)(=O)C5CC5)c4)n3)cc2N2CCC(C)(CO)CC2)c1 [Example 255, (1-(2-((2-(1-(Cyclopropylsulfonyl)-1H-pyrazol-4-yl)pyrimidin-4-yl)amino)-5-((3-((dimethylamino)methyl)phenyl)ethynyl)pyridin-4-yl)-4-methylpiperidin-4-yl)methanol] | 0.1 | 0.3 | 1 | 376 | 1.4 | 1.2 | 1.3 | 0.2 | 0.3 | 0.4 | – | – | – | – | – |
